From PubChem BioAssay (NCI)
Several values for one entry are separate records, joined by “and”; a condition that tells them apart may be missing. Equal entries are not always repeated.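 A five-concentration, 48-hour dose response in 96-well plates underlies each endpoint, interpolated linearly between surrounding concentrations. GI50 marks 50% less growth. TGI: concentration producing complete growth inhibition.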

Assays:
Assay in all cases: inhibition of tumour cell growth, NCI panel, 48 h
[1] = tested on: 786-0 renal
[2] = tested on: A498 renal
[3] = tested on: A549 NSCLC
[4] = tested on: COLO 205 colon
[5] = tested on: HS 578T breast
[6] = tested on: KM12 colon
[7] = tested on: SF-268 CNS
[8] = tested on: SN12C renal

SMILES: CC/C=C\C[C@@H](O)C/C=C1/C(=O)C=C[C@H]1C/C=C\CCCC(=O)OC
- GI50 [1]: 3.29 µM
- TGI [1]: 11.5 µM
- GI50 [2]: 14.6 µM
- TGI [2]: 28.1 µM
- GI50 [3]: 3.75 µM
- TGI [3]: 10.7 µM
- GI50 [4]: 1.8 µM
- TGI [4]: 4.66 µM
- GI50 [5]: 4.06 µM
- TGI [5]: 26.2 µM
- GI50 [6]: 1.65 µM
- TGI [6]: 3.84 µM
- GI50 [7]: 3.92 µM
- TGI [7]: 15.3 µM
- GI50 [8]: 4.64 µM
- TGI [8]: 19.3 µM

SMILES: COc1cc(C(=O)CBr)c(OC)cc1C
- TGI [1]: > 100 µM
- TGI [2]: > 100 µM
- TGI [3]: > 100 µM
- TGI [4]: > 100 µM
- TGI [5]: > 100 µM
- TGI [6]: > 100 µM
- TGI [7]: > 100 µM
- TGI [8]: > 100 µM

SMILES: O=C(CC1(O)C(=O)Nc2c(Cl)ccc(Cl)c21)c1ccc(F)cc1 (stereo not drawn)
- TGI [1]: > 100 µM
- TGI [3]: > 100 µM
- TGI [4]: > 100 µM
- TGI [6]: > 100 µM
- TGI [7]: > 100 µM
- TGI [8]: > 100 µM

SMILES: O=C1C(Cl)=C(NCCN2CCOCC2)C(=O)c2ncccc21
- GI50 [1]: 2.5 µM
- TGI [1]: 2.81 µM and 7.83 µM
- GI50 [2]: 1.91 µM
- TGI [2]: 7.65 µM and 10.9 µM
- TGI [3]: 4.18 µM and 3.87 µM
- GI50 [4]: 1.61 µM
- TGI [4]: 3.43 µM
- GI50 [5]: 3.39 µM
- TGI [5]: 4.97 µM and 19 µM
- GI50 [6]: 3.55 µM
- TGI [6]: 3.1 µM and 16.1 µM
- GI50 [7]: 3.8 µM
- TGI [7]: 4.27 µM and 15.5 µM
- GI50 [8]: 1.93 µM
- TGI [8]: 3.2 µM and 3.84 µM

SMILES: Cc1ccc(C(=O)NC(C)C)cc1-c1ccc(C(=O)NCC2CC2)cc1
- GI50 [1]: > 25 µM
- TGI [1]: > 25 µM
- GI50 [2]: > 25 µM
- TGI [2]: > 25 µM
- GI50 [3]: > 25 µM
- TGI [3]: > 25 µM
- GI50 [4]: > 25 µM
- TGI [4]: > 25 µM
- GI50 [5]: > 25 µM
- TGI [5]: > 25 µM
- GI50 [6]: > 25 µM
- TGI [6]: > 25 µM
- GI50 [7]: > 25 µM
- TGI [7]: > 25 µM
- GI50 [8]: > 25 µM
- TGI [8]: > 25 µM

SMILES: CCOC(=O)/C(=C\c1ccccc1)C(=O)O
- TGI [1]: > 100 µM
- TGI [2]: > 100 µM
- TGI [3]: > 100 µM
- TGI [4]: > 100 µM
- TGI [6]: > 100 µM
- TGI [7]: > 100 µM
- TGI [8]: > 100 µM

SMILES: Cc1cc(-c2cnn3c(NCC4CC(C)(O)C4)cc(Oc4cccnc4)nc23)ccc1C(=O)NC1CC1 (stereo not drawn)
- GI50 [1]: 3.71 µM
- TGI [1]: > 100 µM
- GI50 [2]: 0.435 µM
- TGI [2]: > 100 µM
- GI50 [3]: 3.49 µM
- TGI [3]: > 100 µM
- GI50 [4]: 1.06 µM
- TGI [4]: > 100 µM
- GI50 [5]: 4.19 µM
- TGI [5]: > 100 µM
- GI50 [7]: 8.72 µM
- TGI [7]: > 100 µM
- GI50 [8]: 2.96 µM
- TGI [8]: > 100 µM

SMILES: O=c1cc(-c2ccccc2)oc2cc(OC/C(=N/O)c3ccccc3)ccc12
- GI50 [1]: 26.1 µM
- TGI [1]: > 50 µM
- GI50 [3]: 31.7 µM
- TGI [3]: > 50 µM
- GI50 [4]: > 50 µM
- TGI [4]: > 50 µM
- GI50 [6]: 13.2 µM
- TGI [6]: > 50 µM
- GI50 [7]: 11.5 µM
- TGI [7]: 31 µM
- GI50 [8]: 10.9 µM
- TGI [8]: 44.6 µM

SMILES: NC(=O)NS(=O)(=O)c1ccc(N2N=C(C(F)(F)F)CC2c2cc(C(F)(F)F)cc(C(F)(F)F)c2)cc1 (stereo not drawn)
- GI50 [1]: 7.14 µM
- TGI [1]: 22.7 µM
- GI50 [2]: 2.24 µM
- TGI [2]: 8.15 µM
- GI50 [3]: 3.36 µM
- TGI [3]: 13.5 µM
- GI50 [4]: 2.96 µM
- TGI [4]: 12 µM
- GI50 [6]: 1.83 µM
- TGI [6]: 4.65 µM
- GI50 [7]: 2.96 µM
- TGI [7]: 12.3 µM
- GI50 [8]: 2.1 µM
- TGI [8]: 4.51 µM

SMILES: Cc1c(C(=O)C/C(=N/NC(=O)C[N+](C)(C)C)C(=O)Nc2ccc(Cl)cc2)[n+](=O)c2ccccc2n1O
- TGI [1]: > 100 µM
- TGI [2]: > 100 µM
- TGI [3]: > 100 µM
- TGI [4]: > 100 µM
- TGI [6]: > 100 µM
- TGI [7]: > 100 µM
- TGI [8]: > 100 µM

SMILES: CC(SC(=S)N1CCOCC1)c1cc2oc(=O)n(C)c2cc1Cl (stereo not drawn)
- TGI [1]: > 100 µM
- TGI [3]: > 100 µM
- TGI [4]: > 100 µM
- TGI [6]: > 100 µM
- TGI [7]: > 100 µM
- TGI [8]: > 100 µM

SMILES: Cc1cc(N(CCC#N)CCC#N)ccc1/C=C1\N=C(c2cc([N+](=O)[O-])ccc2Cl)N(c2cccc(Cl)c2)C1=O
- TGI [1]: > 100 µM
- TGI [2]: > 100 µM
- TGI [3]: > 100 µM
- TGI [4]: > 100 µM
- TGI [6]: > 100 µM
- TGI [7]: > 100 µM
- TGI [8]: > 100 µM

SMILES: CC(=O)O[C@H]1C(=O)[C@@]2(C)C(C(OC(=O)c3ccccc3)[C@]3(O)CC(OC(=O)[C@H](OC(=O)CCC(=O)O)C(NC(=O)c4ccccc4)c4ccccc4)C(C)=C1C3(C)C)C1(OC(C)=O)COC1C[C@@H]2O (stereo partly drawn)
- GI50 [1]: 0.0303 µM and 0.108 µM
- TGI [1]: > 100 µM
- TGI [3]: > 100 µM
- TGI [4]: < 0.0142 µM and 0.04 µM
- TGI [5]: 3.1 µM and 1.57 µM
- TGI [7]: > 100 µM
- GI50 [8]: < 0.01 µM and 0.0287 µM
- TGI [8]: > 100 µM

SMILES: O=[N+]([O-])c1ccc(C=NC2CCCCC2)cc1
- TGI [1]: > 100 µM
- TGI [2]: > 100 µM
- TGI [3]: > 100 µM
- TGI [4]: > 100 µM
- TGI [6]: > 100 µM
- TGI [7]: > 100 µM
- TGI [8]: > 100 µM

SMILES: O=C(CCN(C(=O)O)S(=O)(=O)c1ccc(NC(=O)c2ccccc2)cc1)NC1CCCCC1
- TGI [1]: 31.7 µM
- TGI [2]: > 100 µM
- TGI [3]: > 100 µM
- TGI [4]: > 100 µM
- TGI [6]: > 100 µM
- TGI [7]: > 100 µM
- TGI [8]: > 100 µM

SMILES: O/N=C/c1ncccc1C1OCCO1
- TGI [1]: > 100 µM
- TGI [3]: > 100 µM
- TGI [4]: > 100 µM
- TGI [6]: > 100 µM
- TGI [7]: > 100 µM
- TGI [8]: > 100 µM

SMILES: CC1OC(OC2C(OC(=O)[C@]34CCC(C)(C)CC3C3=CCC5[C@@]6(C)C[C@H](O)[C@H](OC7OC(CO)C(O)C(O)C7N)[C@@](C)(C(=O)O)C6CC[C@@]5(C)C3(C)CC4)OCC(O)C2O)C(O)C(O)C1OC1OCC(O)C(O)C1O (stereo partly drawn)
- TGI [1]: > 100 µM
- TGI [2]: > 100 µM
- TGI [3]: > 100 µM
- TGI [4]: > 100 µM
- TGI [6]: > 100 µM
- TGI [7]: > 100 µM
- TGI [8]: > 100 µM

SMILES: O=C1c2ccccc2C(=O)N1CCc1ncc[nH]1
- TGI [1]: > 100 µM
- TGI [3]: > 100 µM
- TGI [4]: > 100 µM
- TGI [5]: > 100 µM
- TGI [6]: > 100 µM
- TGI [7]: > 100 µM
- TGI [8]: > 100 µM

SMILES: O=C(O)CCSC(=O)Nc1ccc([N+](=O)[O-])cc1
- TGI [1]: > 100 µM
- TGI [2]: > 100 µM
- TGI [3]: > 100 µM
- TGI [4]: > 100 µM
- TGI [6]: > 100 µM
- TGI [7]: > 100 µM
- TGI [8]: > 100 µM

SMILES: COc1ccc2c(c1)[n+](=O)c(C(=O)C/C(=N/OCCCc1ccccc1)C(=O)NC13CC4CC(CC(C4)C1)C3)c(C)n2[O-]
- TGI [1]: > 100 µM
- TGI [2]: > 100 µM
- TGI [3]: > 100 µM
- TGI [4]: > 100 µM
- TGI [6]: > 100 µM
- TGI [7]: > 100 µM
- TGI [8]: > 100 µM

SMILES: Cc1ccc2c(c1)Sc1c(ccc3ccccc13)N2
- GI50 [1]: > 100 µM
- TGI [1]: > 100 µM
- GI50 [2]: 83.9 µM
- TGI [2]: > 100 µM
- GI50 [3]: 92.8 µM
- TGI [3]: > 100 µM
- GI50 [4]: 76.1 µM
- TGI [4]: > 100 µM
- GI50 [6]: 48.7 µM
- TGI [6]: > 100 µM
- GI50 [7]: 69.2 µM
- TGI [7]: > 100 µM
- GI50 [8]: > 100 µM
- TGI [8]: > 100 µM
